According to ChEMBL document CHEMBL4507262, “Data for DCP probe A-1596586” (2021):

Key:
[1] = target: Sodium/potassium-transporting ATPase (Sus scrofa) (UniProt P05027+P05024+D2WKD8+D2WKD7+F1ST41); assay: ATPase (Na+/K+) Eurofins-Cerep enzyme and uptake assay; format: protein-complex assay; conditions: Compound concentration 10.0 uM
[2] = target: T1, Alpha-1B adrenergic receptor (Homo sapiens) (UniProt P35368); assay: Alpha1B (h) Eurofins-Cerep binding assay; conditions: filed as antagonist, Compound concentration 10.0 uM
T1 sequence (whole entry): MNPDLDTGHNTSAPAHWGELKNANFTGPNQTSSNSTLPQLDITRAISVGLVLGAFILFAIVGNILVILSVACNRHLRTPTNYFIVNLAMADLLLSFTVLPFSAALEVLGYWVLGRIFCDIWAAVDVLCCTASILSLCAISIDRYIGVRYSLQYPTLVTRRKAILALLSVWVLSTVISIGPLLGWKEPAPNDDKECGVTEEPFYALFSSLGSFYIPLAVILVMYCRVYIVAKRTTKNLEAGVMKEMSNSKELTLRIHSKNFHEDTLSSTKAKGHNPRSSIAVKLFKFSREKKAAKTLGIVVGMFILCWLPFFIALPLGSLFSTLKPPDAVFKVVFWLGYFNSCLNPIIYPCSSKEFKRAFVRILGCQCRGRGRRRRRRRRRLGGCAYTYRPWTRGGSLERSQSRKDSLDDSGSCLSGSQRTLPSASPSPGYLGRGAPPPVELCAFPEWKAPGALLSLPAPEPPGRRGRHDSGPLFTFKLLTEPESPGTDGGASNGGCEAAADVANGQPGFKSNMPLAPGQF

[3] = target: D(2) dopamine receptor (Homo sapiens) (UniProt P14416); assay: D2S (h) Eurofins-Cerep binding assay; set-up: ligand concentration 0.3 nM; conditions: filed as antagonist, Compound concentration 10.0 uM
[4] = target: Muscarinic acetylcholine receptor M1 (Homo sapiens) (UniProt P11229); assay: M1 (h) Eurofins-Cerep binding assay; set-up: ligand concentration 2 nM; conditions: filed as antagonist, Compound concentration 10.0 uM
[5] = target: T2, Muscarinic acetylcholine receptor M4 (Homo sapiens) (UniProt P08173); assay: M4 (h) Eurofins-Cerep binding assay; set-up: ligand concentration 0.2 nM; conditions: filed as antagonist, Compound concentration 10.0 uM
T2 sequence (whole entry): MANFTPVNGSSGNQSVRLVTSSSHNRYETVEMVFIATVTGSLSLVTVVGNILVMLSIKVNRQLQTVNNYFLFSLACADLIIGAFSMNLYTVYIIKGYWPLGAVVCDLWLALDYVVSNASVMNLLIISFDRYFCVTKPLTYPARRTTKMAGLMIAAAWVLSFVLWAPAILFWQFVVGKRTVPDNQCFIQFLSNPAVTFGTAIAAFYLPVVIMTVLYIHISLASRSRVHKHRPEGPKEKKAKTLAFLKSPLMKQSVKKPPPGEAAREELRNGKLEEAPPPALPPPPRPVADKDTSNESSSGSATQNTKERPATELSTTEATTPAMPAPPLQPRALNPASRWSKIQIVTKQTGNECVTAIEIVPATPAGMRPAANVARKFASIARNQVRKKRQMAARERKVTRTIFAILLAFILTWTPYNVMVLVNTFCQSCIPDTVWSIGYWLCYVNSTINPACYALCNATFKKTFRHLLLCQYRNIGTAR

[6] = target: Substance-P receptor (Homo sapiens) (UniProt P25103); assay: NK1 (h) Eurofins-Cerep binding assay; set-up: ligand concentration 0.05 nM; conditions: filed as agonist, Compound concentration 10.0 uM
[7] = target: Estrogen receptor (Homo sapiens) (UniProt P03372); assay: Estrogen ER alpha (h) Eurofins-Cerep binding assay; set-up: ligand concentration 0.5 nM; conditions: filed as agonist, Compound concentration 10.0 uM
[8] = target: L-type Ca2+ channel (dihydropyridine site) (Rattus norvegicus, UniProt P22002+P27732+Q02485); assay: Ca2+ channel (L, dihydropyridine site) Eurofins-Cerep binding assay; format: protein assay; set-up: incubation time 90 min, incubation temperature RT, ligand concentration 0.1 nM; conditions: rat cerebral cortex, probe [3H]nitrendipine (0.1 nM), compound concentration 10 uM, read-out: % Inhibition of Control Specific Binding (Mean n=2)
[9] = target: Calcium/calmodulin-dependent protein kinase kinase 1 (Homo sapiens) (UniProt Q8N5S9); conditions: Compound concentration 1000.0 nM
[10] = test system: Receptor-type tyrosine-protein kinase FLT3 (Homo sapiens), P36888 [UNDEFINED MUTATION]; conditions: Compound concentration 1000.0 nM
[11] = target: Homeodomain-interacting protein kinase 4 (Homo sapiens) (UniProt Q8NE63); conditions: Compound concentration 1000.0 nM
[12] = test system: Mast/stem cell growth factor receptor Kit (Homo sapiens), P10721 [D816H]; conditions: Compound concentration 1000.0 nM
[13] = target: Myosin light chain kinase 2, skeletal/cardiac muscle (Homo sapiens) (UniProt Q9H1R3); conditions: Compound concentration 1000.0 nM
[14] = target: Serine/threonine-protein kinase NLK (Homo sapiens) (UniProt Q9UBE8); conditions: Compound concentration 1000.0 nM
[15] = target: 3-phosphoinositide-dependent protein kinase 1 (Homo sapiens) (UniProt O15530); conditions: Compound concentration 1000.0 nM
[16] = target: Cyclin-dependent kinase 14 (Homo sapiens) (UniProt O94921); conditions: Compound concentration 1000.0 nM
[17] = target: Serine/threonine-protein kinase D3 (Homo sapiens) (UniProt O94806); conditions: Compound concentration 1000.0 nM
[18] = target: cGMP-dependent protein kinase 2 (Homo sapiens) (UniProt Q13237); conditions: Compound concentration 1000.0 nM
[19] = target: Serine/threonine-protein kinase RIO2 (Homo sapiens) (UniProt Q9BVS4); conditions: Compound concentration 1000.0 nM
[20] = target: Ribosomal protein S6 kinase alpha-1 (Homo sapiens) (UniProt Q15418); conditions: Compound concentration 1000.0 nM
[21] = target: Ribosomal protein S6 kinase alpha-3 (Homo sapiens) (UniProt P51812); conditions: Compound concentration 1000.0 nM
[22] = target: Serine/threonine-protein kinase 36 (Homo sapiens) (UniProt Q9NRP7); conditions: Compound concentration 1000.0 nM
[23] = target: T3, 5-hydroxytryptamine receptor 3A (Homo sapiens) (UniProt P46098); conditions: Compound concentration 10.0 uM
T3 sequence (whole entry): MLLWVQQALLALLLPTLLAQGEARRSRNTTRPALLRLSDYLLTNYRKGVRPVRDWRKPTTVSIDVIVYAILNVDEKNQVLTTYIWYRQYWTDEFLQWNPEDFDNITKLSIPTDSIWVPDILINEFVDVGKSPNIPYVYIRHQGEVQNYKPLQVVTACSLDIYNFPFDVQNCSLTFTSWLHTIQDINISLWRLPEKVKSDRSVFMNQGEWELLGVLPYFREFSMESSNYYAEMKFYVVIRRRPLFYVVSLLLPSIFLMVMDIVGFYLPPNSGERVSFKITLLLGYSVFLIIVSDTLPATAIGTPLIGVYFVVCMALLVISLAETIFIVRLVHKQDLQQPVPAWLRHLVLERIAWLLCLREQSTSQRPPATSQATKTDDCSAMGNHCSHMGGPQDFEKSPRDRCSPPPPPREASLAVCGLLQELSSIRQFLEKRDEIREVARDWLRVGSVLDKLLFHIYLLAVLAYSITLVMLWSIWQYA

[24] = target: Delta-type opioid receptor (Homo sapiens) (UniProt P41143); conditions: Compound concentration 10.0 uM

D(2) dopamine receptor (Homo sapiens), sequence (P14416 whole entry): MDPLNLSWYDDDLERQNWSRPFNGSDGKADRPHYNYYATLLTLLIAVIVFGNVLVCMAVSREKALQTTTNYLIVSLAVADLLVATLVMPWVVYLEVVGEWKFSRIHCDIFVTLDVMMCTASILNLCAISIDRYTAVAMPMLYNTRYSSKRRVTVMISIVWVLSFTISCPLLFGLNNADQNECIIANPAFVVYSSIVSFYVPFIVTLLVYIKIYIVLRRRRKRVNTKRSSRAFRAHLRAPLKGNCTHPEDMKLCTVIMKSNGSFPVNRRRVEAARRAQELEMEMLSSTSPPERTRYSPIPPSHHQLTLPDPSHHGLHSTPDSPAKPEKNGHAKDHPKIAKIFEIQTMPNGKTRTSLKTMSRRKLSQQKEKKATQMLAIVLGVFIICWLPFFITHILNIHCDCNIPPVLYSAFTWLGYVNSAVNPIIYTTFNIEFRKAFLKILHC
Receptor-type tyrosine-protein kinase FLT3 (Homo sapiens), P36888 [UNDEFINED MUTATION], sequence (P36888 whole entry, looked up, change not shown): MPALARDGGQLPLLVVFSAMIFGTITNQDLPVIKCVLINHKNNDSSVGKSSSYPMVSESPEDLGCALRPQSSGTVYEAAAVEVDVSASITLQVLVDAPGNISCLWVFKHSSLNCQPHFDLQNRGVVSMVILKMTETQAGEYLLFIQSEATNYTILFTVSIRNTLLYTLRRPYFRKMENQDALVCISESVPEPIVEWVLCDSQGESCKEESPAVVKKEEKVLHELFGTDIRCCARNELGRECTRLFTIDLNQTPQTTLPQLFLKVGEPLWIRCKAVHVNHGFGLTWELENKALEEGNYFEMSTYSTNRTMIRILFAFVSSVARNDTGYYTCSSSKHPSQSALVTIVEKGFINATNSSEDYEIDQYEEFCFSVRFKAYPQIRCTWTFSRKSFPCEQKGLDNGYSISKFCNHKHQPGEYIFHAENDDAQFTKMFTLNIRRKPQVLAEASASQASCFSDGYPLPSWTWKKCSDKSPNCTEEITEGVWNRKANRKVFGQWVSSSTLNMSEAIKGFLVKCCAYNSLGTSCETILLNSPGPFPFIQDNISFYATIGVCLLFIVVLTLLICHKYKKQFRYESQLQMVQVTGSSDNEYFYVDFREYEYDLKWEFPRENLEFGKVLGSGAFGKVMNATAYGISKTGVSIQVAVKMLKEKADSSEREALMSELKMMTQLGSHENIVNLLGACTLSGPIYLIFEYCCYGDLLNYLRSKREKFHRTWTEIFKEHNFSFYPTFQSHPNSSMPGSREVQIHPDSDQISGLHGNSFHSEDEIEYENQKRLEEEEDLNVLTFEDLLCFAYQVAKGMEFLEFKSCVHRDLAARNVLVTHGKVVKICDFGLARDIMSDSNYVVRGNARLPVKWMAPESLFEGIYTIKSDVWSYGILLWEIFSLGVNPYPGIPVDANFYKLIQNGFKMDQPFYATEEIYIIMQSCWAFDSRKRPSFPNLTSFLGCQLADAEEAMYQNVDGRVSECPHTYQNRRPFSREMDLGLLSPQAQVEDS
Estrogen receptor (Homo sapiens), sequence (P03372 whole entry): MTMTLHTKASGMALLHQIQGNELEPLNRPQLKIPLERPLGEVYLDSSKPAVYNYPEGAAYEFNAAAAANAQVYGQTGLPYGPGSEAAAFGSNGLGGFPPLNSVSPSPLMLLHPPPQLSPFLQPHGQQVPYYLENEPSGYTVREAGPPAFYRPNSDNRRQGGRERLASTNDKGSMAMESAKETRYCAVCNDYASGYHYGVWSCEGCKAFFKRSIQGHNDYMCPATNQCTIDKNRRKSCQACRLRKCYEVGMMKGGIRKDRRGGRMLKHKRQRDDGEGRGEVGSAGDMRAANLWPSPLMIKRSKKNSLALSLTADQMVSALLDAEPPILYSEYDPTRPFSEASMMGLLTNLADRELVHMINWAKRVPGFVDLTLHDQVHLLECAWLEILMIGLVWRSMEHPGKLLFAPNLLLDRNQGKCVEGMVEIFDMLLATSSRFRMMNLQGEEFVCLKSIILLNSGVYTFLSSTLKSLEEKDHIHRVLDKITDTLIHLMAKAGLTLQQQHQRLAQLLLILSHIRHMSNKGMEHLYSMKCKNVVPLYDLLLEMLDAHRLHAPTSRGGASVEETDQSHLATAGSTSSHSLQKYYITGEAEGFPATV
Calcium/calmodulin-dependent protein kinase kinase 1 (Homo sapiens), sequence (Q8N5S9 whole entry, looked up): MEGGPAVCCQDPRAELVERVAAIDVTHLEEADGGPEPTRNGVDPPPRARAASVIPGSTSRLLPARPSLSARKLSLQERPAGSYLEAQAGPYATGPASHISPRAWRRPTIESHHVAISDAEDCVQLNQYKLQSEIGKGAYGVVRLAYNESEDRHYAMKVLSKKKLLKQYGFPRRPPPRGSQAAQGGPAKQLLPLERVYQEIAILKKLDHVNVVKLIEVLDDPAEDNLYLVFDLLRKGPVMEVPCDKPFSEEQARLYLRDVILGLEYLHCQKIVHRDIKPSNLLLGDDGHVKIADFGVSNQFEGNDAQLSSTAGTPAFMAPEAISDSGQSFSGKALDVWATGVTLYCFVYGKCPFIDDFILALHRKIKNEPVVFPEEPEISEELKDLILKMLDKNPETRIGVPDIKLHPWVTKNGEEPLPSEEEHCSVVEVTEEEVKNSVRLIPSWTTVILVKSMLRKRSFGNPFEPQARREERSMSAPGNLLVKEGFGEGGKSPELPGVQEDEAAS
Homeodomain-interacting protein kinase 4 (Homo sapiens), sequence (Q8NE63 whole entry): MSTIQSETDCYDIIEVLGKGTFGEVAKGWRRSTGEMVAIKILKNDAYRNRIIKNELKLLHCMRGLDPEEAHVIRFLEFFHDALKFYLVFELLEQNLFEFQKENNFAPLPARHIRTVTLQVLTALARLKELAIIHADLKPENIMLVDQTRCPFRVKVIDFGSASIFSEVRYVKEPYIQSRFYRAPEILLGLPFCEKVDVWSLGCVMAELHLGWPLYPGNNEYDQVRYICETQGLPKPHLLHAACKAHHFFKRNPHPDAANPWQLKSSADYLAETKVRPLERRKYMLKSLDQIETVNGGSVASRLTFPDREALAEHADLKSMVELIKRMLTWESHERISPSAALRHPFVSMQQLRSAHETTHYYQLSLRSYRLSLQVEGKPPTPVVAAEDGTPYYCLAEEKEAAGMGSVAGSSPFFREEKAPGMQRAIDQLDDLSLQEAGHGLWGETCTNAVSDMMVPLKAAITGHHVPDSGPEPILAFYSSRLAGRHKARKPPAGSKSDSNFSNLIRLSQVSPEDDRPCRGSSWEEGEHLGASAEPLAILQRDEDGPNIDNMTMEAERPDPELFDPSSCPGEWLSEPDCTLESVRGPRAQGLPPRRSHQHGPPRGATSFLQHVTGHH
cGMP-dependent protein kinase 2 (Homo sapiens), sequence (Q13237 whole entry): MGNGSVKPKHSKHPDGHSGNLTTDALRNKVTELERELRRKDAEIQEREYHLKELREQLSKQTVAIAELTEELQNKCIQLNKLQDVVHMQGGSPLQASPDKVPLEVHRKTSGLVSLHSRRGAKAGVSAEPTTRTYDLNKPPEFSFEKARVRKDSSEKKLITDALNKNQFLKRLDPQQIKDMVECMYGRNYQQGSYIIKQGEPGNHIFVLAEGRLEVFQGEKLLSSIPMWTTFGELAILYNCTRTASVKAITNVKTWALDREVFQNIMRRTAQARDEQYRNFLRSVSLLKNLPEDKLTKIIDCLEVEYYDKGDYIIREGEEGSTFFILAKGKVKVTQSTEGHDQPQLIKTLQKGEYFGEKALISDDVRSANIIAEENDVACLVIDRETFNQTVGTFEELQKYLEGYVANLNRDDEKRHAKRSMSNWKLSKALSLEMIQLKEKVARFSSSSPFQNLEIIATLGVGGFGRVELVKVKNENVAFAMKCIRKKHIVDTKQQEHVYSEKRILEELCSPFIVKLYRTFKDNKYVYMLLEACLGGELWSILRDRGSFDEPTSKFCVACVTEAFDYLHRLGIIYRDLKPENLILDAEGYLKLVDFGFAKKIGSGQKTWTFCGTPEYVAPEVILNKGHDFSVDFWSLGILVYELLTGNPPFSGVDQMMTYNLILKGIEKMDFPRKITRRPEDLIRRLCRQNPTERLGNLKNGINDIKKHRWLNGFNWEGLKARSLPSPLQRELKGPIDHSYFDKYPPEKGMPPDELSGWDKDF
Cyclin-dependent kinase 14 (Homo sapiens), sequence (O94921 whole entry): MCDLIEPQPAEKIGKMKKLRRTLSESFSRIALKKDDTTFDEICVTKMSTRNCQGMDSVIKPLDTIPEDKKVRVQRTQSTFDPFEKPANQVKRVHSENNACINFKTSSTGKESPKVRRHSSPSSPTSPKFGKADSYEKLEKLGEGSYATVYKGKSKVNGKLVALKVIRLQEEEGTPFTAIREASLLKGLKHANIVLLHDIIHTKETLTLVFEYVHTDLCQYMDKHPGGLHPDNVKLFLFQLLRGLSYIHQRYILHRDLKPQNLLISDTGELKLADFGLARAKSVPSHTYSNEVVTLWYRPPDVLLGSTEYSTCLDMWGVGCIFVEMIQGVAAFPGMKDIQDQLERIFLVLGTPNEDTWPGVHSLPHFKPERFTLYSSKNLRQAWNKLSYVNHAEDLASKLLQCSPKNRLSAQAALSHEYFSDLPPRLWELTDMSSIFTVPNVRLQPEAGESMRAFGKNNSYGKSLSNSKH
3-phosphoinositide-dependent protein kinase 1 (Homo sapiens), sequence (O15530 whole entry): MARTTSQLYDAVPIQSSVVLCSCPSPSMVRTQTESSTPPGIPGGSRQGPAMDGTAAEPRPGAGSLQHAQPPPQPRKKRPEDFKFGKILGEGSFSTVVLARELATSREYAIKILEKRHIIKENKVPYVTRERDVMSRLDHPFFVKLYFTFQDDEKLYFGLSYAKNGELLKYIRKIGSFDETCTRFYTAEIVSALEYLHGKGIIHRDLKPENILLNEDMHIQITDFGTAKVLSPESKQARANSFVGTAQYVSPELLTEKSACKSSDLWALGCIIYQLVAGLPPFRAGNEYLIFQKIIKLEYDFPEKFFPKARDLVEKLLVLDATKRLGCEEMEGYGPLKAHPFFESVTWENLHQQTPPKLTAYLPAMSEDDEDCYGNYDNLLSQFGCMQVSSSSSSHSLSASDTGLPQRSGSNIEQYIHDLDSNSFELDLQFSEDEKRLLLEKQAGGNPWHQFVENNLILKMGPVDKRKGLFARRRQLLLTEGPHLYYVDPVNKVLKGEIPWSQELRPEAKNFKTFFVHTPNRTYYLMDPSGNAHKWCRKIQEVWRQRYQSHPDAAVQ

SMILES	% Inhibition of Control Values (Mean n=2) [1] [%]	% Inhibition of Control Specific Binding (Mean n=2) [2] [%]	% Inhibition of Control Specific Binding (Mean n=2) [3] [%]	% Inhibition of Control Specific Binding (Mean n=2) [4] [%]	% Inhibition of Control Specific Binding (Mean n=2) [5] [%]	% Inhibition of Control Specific Binding (Mean n=2) [6] [%]	% Inhibition of Control Specific Binding (Mean n=2) [7] [%]	inhibition at 90 min, 10 µM [8] [%]	residual activity [9] [%]	residual activity [10] [%]	residual activity [11] [%]	residual activity [12] [%]	residual activity [13] [%]	residual activity [14] [%]	residual activity [15] [%]	residual activity [16] [%]	residual activity [17] [%]	residual activity [18] [%]	residual activity [19] [%]	residual activity [20] [%]	other results
COc1ccc2c(c1)O[C@@H](c1ccc(OC)c(OC)c1)C[C@H]2NC(=O)C1(c2ccc3c(c2)OC(F)(F)O3)CC1 [A-1596586]	0.8	4.8	27.7	-20.6	6.1	44.4	2.9	34.6	89	100	51	94	90	100	100	93	97	96	100	98	residual activity [21]: 100%; residual activity [22]: 100%; inhibition [23]: -1.13%; inhibition [24]: -7.29%
COc1ccc2c(c1)O[C@H](c1ccc(OC)c(OC)c1)C[C@@H]2NC(=O)C1(c2ccc3c(c2)OC(F)(F)O3)CC1 [A-1596584]	2.2	17.4	18.7	-28	-3.9	92.1	-4	2.6	100	100	91	100	95	100	100	98	100	89	100	100	residual activity [21]: 93%; residual activity [22]: 94%; inhibition [23]: -3.53%; inhibition [24]: -9.84%
